Experimental data reported in US20070173539A1, “Use of malonomicin and analogs in fungicidal applications” (priority 2006, published 2007).

Legend:
Type in all cases: in vivo
[1] = tested on: Puccinia recondita f. sp. tritici PUCCRT; assay: Curative low volume test, wheat brown rust; details: low volume 300 L/ha; for PUCCRT 1DC percent disease control: curative 1 day; for PUCCRT 3DC percent disease control: curative 3 days
[2] = tested on: Leptosphaeria nodorum (LEPTNO); assay: Glume Blotch of Wheat one day protectant (1DP); details: wheat (Yuma), sprayed to runoff, rate 200 ppm
Description: Final treatment volumes were obtained by adding 0.1 percent aqueous Ethomeen T25 or 0.1 percent aqueous Spraymate X77+0.1 percent wt./vol. ammonium sulfate^+. Glume Blotch of Wheat (Leptosphaeria nodorum-[…]) Wheat (cultivar Yuma) was grown in plastic pots (6.2 cm×8.75 cm) containing 50 percent mineral soil, 50 percent Metro-Mix 360 (W.R Grace and Co.). until the seedlings were 10-20 cm tall. These plants were then sprayed to runoff with the test compound at a rate of 200 ppm. After 24 hours the test plants were inoculated by spraying with an aqueous spore suspension of Leptosphaeria nodorum ([…]). The plants were then transferred to a dew chamber for 24 hours, then to the greenhouse until disease developed on the untreated control plants.

[3] = tested on: Plasmopara viticola (PLASVI); assay: Downy Mildew of Grape one day protectant (1DP); details: grape (Carignane), sprayed to runoff, rate 200 ppm
Description: Final treatment volumes were obtained by adding 0.1 percent aqueous Ethomeen T25 or 0.1 percent aqueous Spraymate X77+0.1 percent wt./vol. ammonium sulfate^+. Downy Mildew of Grape (Plasmopara viticola-[…]) Vines (cultivar Carignane) were grown from seed in a soilless peat-based potting mixture “Metro-Mix 360” (W.R Grace and Co.) until the seedlings were 10-20 cm tall. These plants were then sprayed to runoff with the test compound at a rate of 200 ppm. After 24 hours the test plants were inoculated by spraying with an aqueous sporangia suspension of Plasmopara viticola ([…]). The plants were then transferred to a dew chamber for 24 hours, then to the greenhouse until disease developed on the untreated control plants.

NC[C@@H]1NC(=O)C(C(=O)CC(NC(=O)[C@@H](N)CO)(C(=O)O)C(=O)O)=C1O [Compound I, {[(2S)-2-amino-3-hydroxypropanoyl]amino}{2-[(5S)-5-(aminomethyl)-4-hydroxy-2-oxo-2,5-dihydro-1H-pyrrol-3-yl]-2-oxoethyl}malonic acid]
PUCCRT 1DC percent disease control ([1]; 7.8 g ai/ha): − (− = 0-29 percent control of plant disease)
PUCCRT 1DC percent disease control ([1]; 15.6 g ai/ha): − (− = 0-29 percent control of plant disease)
PUCCRT 1DC percent disease control ([1]; 31.2 g ai/ha): + (+ = 30-74 percent control of plant disease)
PUCCRT 1DC percent disease control ([1]; 62.5 g ai/ha): + (+ = 30-74 percent control of plant disease)
PUCCRT 1DC percent disease control ([1]; 125 g ai/ha): ++ (++ = 75-100 percent control)
PUCCRT 1DC percent disease control ([1]; 250 g ai/ha): ++ (++ = 75-100 percent control)
PUCCRT 3DC percent disease control ([1]; 7.8 g ai/ha): − (− = 0-29 percent control of plant disease)
PUCCRT 3DC percent disease control ([1]; 15.6 g ai/ha): + (+ = 30-74 percent control of plant disease)
PUCCRT 3DC percent disease control ([1]; 31.2 g ai/ha): ++ (++ = 75-100 percent control)
PUCCRT 3DC percent disease control ([1]; 62.5 g ai/ha): ++ (++ = 75-100 percent control)
PUCCRT 3DC percent disease control ([1]; 125 g ai/ha): ++ (++ = 75-100 percent control)
PUCCRT 3DC percent disease control ([1]; 250 g ai/ha): ++ (++ = 75-100 percent control)
LEPTNO percent control of plant disease [2]: + (+ = 30-74 percent control of plant disease)
PLASVI percent control of plant disease [3]: ++ (++ = 75-100 percent control of plant disease)
